Assay results as given in patent US20250235434A1, “RIFABUTIN ANALOGS FOR THE TREATMENT OF DISEASE” (BIOVERSYS AG, priority 2022, published 2025).
In brackets after ≈: the same amount, converted by molar mass. Read-outs that look alike come from different tables or passages of the source.

Assays:
Format in all cases: cell-based
[1] = system: S. aureus (UAMS-1625 strain); experiment: MIC by broth microdilution against S. aureus; details: Staphylococcus aureus, 20 h, read-out: MIC S. aureus
[2] = system: A. baumannii (HUMC1 strain); experiment: MIC by broth microdilution against A. baumannii; details: Acinetobacter baumannii, RPMI medium supplemented with 10% FCS, 35° C. for 20 hours, visual reading
[3] = system: M. abscessus (ATCC 19977); experiment: MIC by broth microdilution against M. abscessus; details: Mycobacteroides abscessus
[4] = system: M. smegmatis (ATCC 700084); experiment: MIC against M. smegmatis (resazurin assay); details: Mycolicibacterium smegmatis, ATCC700084, Middlebrook 7H9 + ADC, 90% growth inhibition, 20 h
M. xenopi (ATCC 19250) = experiment: MIC against M. xenopi (resazurin assay); details: Mycobacterium xenopi, ATCC19250, 168 h, Middlebrook 7H9 + ADC, 90% growth inhibition, 7 days
M. avium (ATCC 25291) = experiment: MIC against M. avium (resazurin assay); details: Mycobacterium avium, ATCC25291, 168 h, Middlebrook 7H9 + ADC, 90% growth inhibition, 7 days
M. kansasii (ATCC 12478) = experiment: MIC against M. kansasii (resazurin assay); details: Mycobacterium kansasii, ATCC12478, 168 h, Middlebrook 7H9 + ADC, 90% growth inhibition, 7 days
[5] = system: M. tuberculosis H37Rv (ATCC 27294); experiment: microbe, parasite or virus in culture; details: Mycobacterium tuberculosis, 120 h
[6] = ATCC19977, 20 h, ATCC 19977, Middlebrook 7H9 broth with ADC supplement, visual reading, read-out: MIC M. abscessus
[7] = ATCC19977, 20 h, read-out: MIC M. abscessus

Row | Compound | MIC [1] | MIC [2] | MIC [3, 6] | MIC [4] | MIC (M. xenopi (ATCC 19250)) | MIC (M. avium (ATCC 25291)) | MIC (M. kansasii (ATCC 12478)) | MIC [5] | MIC [3, 7] | MIC ([3]; ATCC19977, tested M. abscessus strains, read-out: MIC value on M. abscessus)
1 | CO[C@H]1/C=C/O[C@@]2(C)Oc3c(C)c(O)c4c(c3C2=O)C2=NC3(CCN(CC(C)C)CC3)NC2=C(NC(=O)/C(C)=C\C=C\[C@H](C)[C@H](O)[C@@H](C)[C@@H](O)[C@@H](C)[C@H](OC(=O)CN2CCC(Oc3ccccc3)CC2)[C@@H]1C)C4=O [Compound 25] | 1 µg/mL (≈ 978 nM) | 0.06 µg/mL (≈ 58.7 nM) | 1 µg/mL (≈ 978 nM) | 0.1 µg/mL | 0.02 µg/mL | 0.8 µg/mL | 0.02 µg/mL | 0.008 µg/mL (≈ 7.83 nM) | – | –
2 | CO[C@H]1/C=C/O[C@@]2(C)Oc3c(C)c(O)c4c(c3C2=O)C2=NC3(CCN(CC(C)C)CC3)NC2=C(NC(=O)/C(C)=C\C=C\[C@H](C)[C@H](O)[C@@H](C)[C@@H](O)[C@@H](C)[C@H](OC(=O)CN2CCC(n3c(=O)[nH]c5cc(Cl)ccc53)CC2)[C@@H]1C)C4=O [Compound 19] | 4 µg/mL (≈ 3650 nM) | 0.125 µg/mL (≈ 114 nM) | 0.5 µg/mL (≈ 456 nM) | 0.24 µg/mL | 0.03 µg/mL | 4 µg/mL | 0.015 µg/mL | 0.003 µg/mL (≈ 2.74 nM) | – | –
3 | CO[C@H]1/C=C/O[C@@]2(C)Oc3c(C)c(O)c4c(c3C2=O)C2=NC3(CCN(CC(C)C)CC3)NC2=C(NC(=O)/C(C)=C\C=C\[C@H](C)[C@H](O)[C@@H](C)[C@@H](O)[C@@H](C)[C@H](OC(=O)CN2CCC3C(CCCN3Cc3ccccc3)C2)[C@@H]1C)C4=O (stereo partly shown) [Compound 28] | 0.125 µg/mL (≈ 116 nM) | 0.016 µg/mL (≈ 14.9 nM) | – | 0.1 µg/mL | 0.03 µg/mL | 3.9 µg/mL | 0.01 µg/mL | 0.003 µg/mL (≈ 2.79 nM) | 0.125 µg/mL (≈ 116 nM) | –
4 | CO[C@H]1/C=C/O[C@@]2(C)Oc3c(C)c(O)c4c(c3C2=O)C2=NC3(CCN(CC(C)C)CC3)NC2=C(NC(=O)/C(C)=C\C=C\[C@H](C)[C@H](O)[C@@H](C)[C@@H](O)[C@@H](C)[C@H](OC(=O)CN2CCC(O)(Cc3ccccc3)CC2)[C@@H]1C)C4=O [Compound 24] | 0.125 µg/mL (≈ 121 nM) | 0.016 µg/mL (≈ 15.4 nM) | 1 µg/mL (≈ 965 nM) | 0.1 µg/mL | 0.01 µg/mL | 2 µg/mL | 0.01 µg/mL | 0.004 µg/mL (≈ 3.86 nM) | – | –
5 | CO[C@H]1/C=C/O[C@@]2(C)Oc3c(C)c(O)c4c(c3C2=O)C2=NC3(CCN(CC(C)C)CC3)NC2=C(NC(=O)/C(C)=C\C=C\[C@H](C)[C@H](O)[C@@H](C)[C@@H](O)[C@@H](C)[C@H](OC(=O)CN2CCCN(c3ccc(F)cc3)CC2)[C@@H]1C)C4=O [Compound 34] | 2 µg/mL (≈ 1920 nM) | 0.125 µg/mL (≈ 120 nM) | 0.5 µg/mL (≈ 481 nM) | 0.11 µg/mL | 0.01 µg/mL | 0.5 µg/mL | 0.009 µg/mL | 0.008 µg/mL (≈ 7.7 nM) | – | –
6 | CO[C@H]1/C=C/O[C@@]2(C)Oc3c(C)c(O)c4c(c3C2=O)C2=NC3(CCN(CC(C)C)CC3)NC2=C(NC(=O)/C(C)=C\C=C\[C@H](C)[C@H](O)[C@@H](C)[C@@H](O)[C@@H](C)[C@H](OC(=O)CN2CCC3(CC2)C(=O)NCN3c2ccccc2)[C@@H]1C)C4=O [Compound 20] | 0.5 µg/mL (≈ 465 nM) | 0.03 µg/mL (≈ 27.9 nM) | 0.25 µg/mL (≈ 232 nM) | 0.1 µg/mL | 0.03 µg/mL | 0.5 µg/mL | 0.01 µg/mL | 0.003 µg/mL (≈ 2.79 nM) | – | –
7 | CO[C@H]1/C=C/O[C@@]2(C)Oc3c(C)c(O)c4c(c3C2=O)C2=NC3(CCN(CC(C)C)CC3)NC2=C(NC(=O)/C(C)=C\C=C\[C@H](C)[C@H](O)[C@@H](C)[C@@H](O)[C@@H](C)[C@H](OC(=O)CN2CCc3[nH]c5ccccc5c3C2)[C@@H]1C)C4=O [Compound 33] | 1 µg/mL (≈ 983 nM) | 0.125 µg/mL (≈ 123 nM) | 0.5 µg/mL (≈ 492 nM) | 0.1 µg/mL | 0.7 µg/mL | 0.3 µg/mL | 0.01 µg/mL | 0.008 µg/mL (≈ 7.86 nM) | – | –
8 | CO[C@H]1/C=C/O[C@@]2(C)Oc3c(C)c(O)c4c(c3C2=O)C2=NC3(CCN(CC(C)C)CC3)NC2=C(NC(=O)/C(C)=C\C=C\[C@H](C)[C@H](O)[C@@H](C)[C@@H](O)[C@@H](C)[C@H](OC(=O)CN2CCN(CC3CCCCC3)CC2)[C@@H]1C)C4=O [Compound 40] | 0.25 µg/mL (≈ 243 nM) | 0.125 µg/mL (≈ 122 nM) | 0.125 µg/mL (≈ 122 nM) | 0.02 µg/mL | 0.05 µg/mL | 0.19 µg/mL | 0.008 µg/mL | 0.004 µg/mL (≈ 3.89 nM) | – | –
9 | CO[C@H]1/C=C/O[C@@]2(C)Oc3c(C)c(O)c4c(c3C2=O)C2=NC3(CCN(CC(C)C)CC3)NC2=C(NC(=O)/C(C)=C\C=C\[C@H](C)[C@H](O)[C@@H](C)[C@@H](O)[C@@H](C)[C@H](OC(=O)CN2CCC(N(C)c3ccccc3)CC2)[C@@H]1C)C4=O [Compound 39] | 0.125 µg/mL (≈ 121 nM) | ≤ 0.03 µg/mL | – | 0.06 µg/mL | 0.003 µg/mL | 0.4 µg/mL | 0.003 µg/mL | 0.0001 µg/mL (≈ 0.0966 nM) | 0.125 µg/mL (≈ 121 nM) | –
10 | CO[C@H]1/C=C/O[C@@]2(C)Oc3c(C)c(O)c4c(c3C2=O)C2=NC3(CCN(CC(C)C)CC3)NC2=C(NC(=O)/C(C)=C\C=C\[C@H](C)[C@H](O)[C@@H](C)[C@@H](O)[C@@H](C)[C@H](OC(C)=O)[C@@H]1C)C4=O [Rifabutin] | 0.016 µg/mL (≈ 18.9 nM) | ≤ 0.002 µg/mL | 8 µg/mL (≈ 9440 nM) | 0.14 µg/mL | 0.01 µg/mL | 0.15 µg/mL | 0.001 µg/mL | 0.0003 µg/mL (≈ 0.354 nM) | – | 8 µg/mL (≈ 9440 nM)
11 | CO[C@H]1/C=C/O[C@@]2(C)Oc3c(C)c(O)c4c(c3C2=O)C2=NC3(CCN(CC(C)C)CC3)NC2=C(NC(=O)/C(C)=C\C=C\[C@H](C)[C@H](O)[C@@H](C)[C@@H](O)[C@@H](C)[C@H](OC(=O)CN2CCC(NS(=O)(=O)c3ccccc3)CC2)[C@@H]1C)C4=O [Compound 29] | 0.5 µg/mL (≈ 461 nM) | 0.03 µg/mL (≈ 27.6 nM) | 0.25 µg/mL (≈ 230 nM) | 0.09 µg/mL | 0.01 µg/mL | 0.6 µg/mL | 0.01 µg/mL | 0.003 µg/mL (≈ 2.76 nM) | – | –
12 | CO[C@H]1/C=C/O[C@@]2(C)Oc3c(C)c(O)c4c(c3C2=O)C2=NC3(CCN(CC(C)C)CC3)NC2=C(NC(=O)/C(C)=C\C=C\[C@H](C)[C@H](O)[C@@H](C)[C@@H](O)[C@@H](C)[C@H](OC(=O)CNCCN2CCOCC2)[C@@H]1C)C4=O [Compound 10] | 0.03 µg/mL (≈ 30.8 nM) | ≤ 0.002 µg/mL | 1 µg/mL (≈ 1030 nM) | 0.1 µg/mL | 0.01 µg/mL | 1 µg/mL | 0.015 µg/mL | 0.008 µg/mL (≈ 8.2 nM) | – | –
13 | CO[C@H]1/C=C/O[C@@]2(C)Oc3c(C)c(O)c4c(c3C2=O)C2=NC3(CCN(CC(C)C)CC3)NC2=C(NC(=O)/C(C)=C\C=C\[C@H](C)[C@H](O)[C@@H](C)[C@@H](O)[C@@H](C)[C@H](OC(=O)CN2CCN(C)CC2)[C@@H]1C)C4=O [Compound 6] | 0.03 µg/mL (≈ 31.7 nM) | ≤ 0.002 µg/mL | 1 µg/mL (≈ 1060 nM) | 0.03 µg/mL | 0.04 µg/mL | 1.3 µg/mL | 0.01 µg/mL | 0.008 µg/mL (≈ 8.46 nM) | – | –
14 | CO[C@H]1/C=C/O[C@@]2(C)Oc3c(C)c(O)c4c(c3C2=O)C2=NC3(CCN(CC(C)C)CC3)NC2=C(NC(=O)/C(C)=C\C=C\[C@H](C)[C@H](O)[C@@H](C)[C@@H](O)[C@@H](C)[C@H](OC(=O)CNC2CCN(C)CC2)[C@@H]1C)C4=O [Compound 2] | 0.06 µg/mL (≈ 62.6 nM) | ≤ 0.002 µg/mL | 2 µg/mL (≈ 2090 nM) | 0.03 µg/mL | 0.08 µg/mL | 1.2 µg/mL | 0.02 µg/mL | 0.02 µg/mL (≈ 20.9 nM) | – | –
15 | CO[C@H]1/C=C/O[C@@]2(C)Oc3c(C)c(O)c4c(c3C2=O)C2=NC3(CCN(CC(C)C)CC3)NC2=C(NC(=O)/C(C)=C\C=C\[C@H](C)[C@H](O)[C@@H](C)[C@@H](O)[C@@H](C)[C@H](OC(=O)CNCCCN(C)C)[C@@H]1C)C4=O [Compound 12] | 0.03 µg/mL (≈ 31.7 nM) | ≤ 0.002 µg/mL | 1 µg/mL (≈ 1060 nM) | 0.03 µg/mL | 0.01 µg/mL | 1.4 µg/mL | 0.0055 µg/mL | 0.003 µg/mL (≈ 3.17 nM) | – | –
